The compounds below were run against Nuclear receptor subfamily 1 group D member 2 (Homo sapiens) (UniProt Q14995) (assay: Antagonist activity at Rev-Erb beta (unknown origin) by RORE-luciferase reporter assay).
Nuclear receptor subfamily 1 group D member 2 (Homo sapiens), sequence (Q14995 whole entry, looked up): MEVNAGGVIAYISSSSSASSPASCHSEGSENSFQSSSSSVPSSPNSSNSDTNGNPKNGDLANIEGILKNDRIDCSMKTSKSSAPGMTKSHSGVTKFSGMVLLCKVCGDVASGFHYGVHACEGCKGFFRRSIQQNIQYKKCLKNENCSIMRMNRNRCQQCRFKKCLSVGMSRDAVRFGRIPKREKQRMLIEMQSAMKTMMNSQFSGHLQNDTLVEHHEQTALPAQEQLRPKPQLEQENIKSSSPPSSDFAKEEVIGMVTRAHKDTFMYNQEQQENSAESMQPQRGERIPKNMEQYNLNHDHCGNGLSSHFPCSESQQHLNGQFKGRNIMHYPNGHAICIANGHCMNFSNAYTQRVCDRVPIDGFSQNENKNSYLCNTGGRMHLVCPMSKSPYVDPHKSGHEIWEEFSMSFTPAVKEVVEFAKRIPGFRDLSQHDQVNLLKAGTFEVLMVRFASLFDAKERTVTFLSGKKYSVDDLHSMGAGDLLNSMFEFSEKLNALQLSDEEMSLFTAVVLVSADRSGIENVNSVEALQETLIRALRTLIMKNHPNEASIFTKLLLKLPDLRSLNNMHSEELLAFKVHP

Row | Compound | EC50 [nM]
1 | CN1CCN(Cc2cc(CNC3(c4ccccc4F)CCCC3)ccc2O)CC1 | 30000

Each compound was assayed against T1, Nuclear receptor subfamily 1 group D member 1 (Homo sapiens, UniProt P20393) (assay: Inverse agonist activity at Rev-Erb alpha LBD (unknown origin) by FRET assay).
T1 sequence (P20393 whole entry): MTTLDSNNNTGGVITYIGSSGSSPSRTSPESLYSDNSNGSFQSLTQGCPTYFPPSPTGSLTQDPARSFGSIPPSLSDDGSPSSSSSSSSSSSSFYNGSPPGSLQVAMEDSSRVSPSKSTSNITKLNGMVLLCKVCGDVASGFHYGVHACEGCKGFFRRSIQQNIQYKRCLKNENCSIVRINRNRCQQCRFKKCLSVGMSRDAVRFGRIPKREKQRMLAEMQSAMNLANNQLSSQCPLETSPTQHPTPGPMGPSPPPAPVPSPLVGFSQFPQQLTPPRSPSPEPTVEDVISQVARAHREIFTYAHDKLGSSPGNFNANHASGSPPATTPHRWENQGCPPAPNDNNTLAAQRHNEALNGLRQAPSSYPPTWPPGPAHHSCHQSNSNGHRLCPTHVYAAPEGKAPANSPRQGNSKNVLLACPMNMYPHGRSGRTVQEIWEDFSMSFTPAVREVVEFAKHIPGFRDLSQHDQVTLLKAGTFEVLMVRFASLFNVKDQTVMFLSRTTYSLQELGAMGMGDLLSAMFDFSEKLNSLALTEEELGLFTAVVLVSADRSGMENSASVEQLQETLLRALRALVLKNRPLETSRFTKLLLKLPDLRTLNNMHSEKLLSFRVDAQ

Row | Compound | EC50 [nM]
2 | COCCNc1oc(-c2ccc(N(C)Cc3ccc(Cl)cc3)cc2)nc1C#N | 150

What follows are compounds tested against T1, Nuclear receptor subfamily 1 group D member 1 (assay: Antagonist activity at Rev-Erb alpha (unknown origin) by BMAL1-luciferase reporter assay).

Row | Compound | EC50 [nM]
3 | O=C(Nc1ccccc1)N1CCC(CN(Cc2ccc(Cl)cc2)Cc2ccc([N+](=O)[O-])s2)CC1 | 1300
4 | CCOC(=O)C1Cc2ccccc2CN1C(=O)c1ccc(SC)s1 (stereo not given) | 470
5 | Cc1cc(Cl)cc(CN(Cc2ccc(Cl)cc2)Cc2ccc([N+](=O)[O-])s2)c1 | 2050
6 | CCOC(=O)C1Cc2ccccc2CN1C(=O)c1ccc(C)o1 (stereo not given) | 1300

Each compound was assayed against T1, Nuclear receptor subfamily 1 group D member 1 (assay: Agonist activity at Rev-Erb alpha (unknown origin) by FRET assay).
Type: single protein

Row | Compound | EC50 [nM]
7 | FC(F)(F)c1ccc(-c2cncnc2)c(Oc2ccc3nnc(Cl)n3n2)c1 | < 5000
8 | Cc1cc(F)ccc1-c1ccc(C(F)(F)F)cc1Oc1nn(C)c(=O)c2ccsc12 | 1130
9 | FC(F)(F)c1ccc(-c2ccc3ncc(Cl)n3c2)c(Oc2nn3ccnc3c3ccsc23)c1 | 5510
10 | FC(F)(F)c1ccc(-c2cccnc2)c(Oc2ccc3nnc(Cl)n3n2)c1 | < 1000
11 | Cc1cc(Cl)cc(CN(Cc2ccc(Cl)cc2)Cc2ccc([N+](=O)[O-])s2)c1 | 50
12 | CC(C)(C)Oc1ccc(OC[C@@H]2Cc3cc(F)ccc3CN2C(=O)c2cccc3ccccc23)cc1 | 68
13 | Cn1nc(Oc2cc(C(F)(F)F)ccc2-c2ccsc2Cl)c2sccc2c1=O | 520
14 | CCCCCNC(=O)N1CCC(CN(Cc2ccc(Cl)cc2)Cc2ccc([N+](=O)[O-])s2)C1 (stereo not given) [SR9011] | 710

Each compound was assayed against T1, Nuclear receptor subfamily 1 group D member 1 (assay: Agonist activity at Rev-Erb alpha (unknown origin) by BMAL1-luciferase reporter assay).

Row | Compound | EC50 [nM]
15 | O=C(c1cccc2ccccc12)N1Cc2ccccc2CC1CNCc1ccccc1 (stereo not given) | 3000
